Data set [1] relates to CD630. Put plainly: Bacteriolytic vs bacteriocidal vs bacteriostatic activity on log-phase CD630 cultures (OD600, CFU). It counts as cell-based, C. difficile. To be noted: activity normalised; added at log phase. The method, then:
Fractions 1-3 were analysed for their ability to inhibit growth of cultures of CD630 by addition of test material at the log phase of cell growth (OD600˜0.3). Test materials were diluted in dH2O to normalise so that each sample to be tested carried the same activity/volume. […] of diluted test material was added to 1 ml of CD630 culture and 0.2 ml removed hourly for OD600 readings.
Optical density (OD600) was measured before and after addition of test material. A decline in OD600 indicates bacteriolytic activity while stalling of the increase in OD600 indicates either bacteriostatic or bacteriocidal growth. On the other hand a decline in CFU/ml indicates both bacteriolytic and/or bacteriocidal activity. (FIGS. 22A and 22B and Table 13).

Another data set relates to M. tuberculosis H37Rv. Put plainly: MIC by resazurin microtitre assay (REMA). Format: cell-based. The note with it: Mycobacterium tuberculosis, 240 h, read-out: MIC, M. tuberculosis H37Rv.
For data set [2] the following is noted: lipopeptides of B. subtilis; cited from earlier work.
A short description of data set [3]: Solubility in water / appearance of solution. It counts as physicochemical. The source says: C15 iturin A is an example of a lipopeptide able to form micelles and is water-soluble. The inventors suspect that C15 iturin A may enable other lipopeptides to be solubilised in water and potentially form mixed micelles enabling them to target the bacterial cell. To test this, the inventors mixed water solubilised C15 iturin A with a commercial surfactin (Sigma S3523; derived from B. subtilis and a mixture of C13-C15 surfactins). […] The presence of C15 iturin A enables the solubilisation of […] in water and probably all or many of the other lipopeptides present in or on the cell wall of SG277 and other Bacillus species. The important requirements for activity are the concentration of lipopeptides that are produced (since micelles can only be formed at levels above a critical threshold). The micelles formed are most likely to be mixed micelles (i.e., carrying different lipopeptide species but all carrying C15 iturin A)(at least for B. amyloliquefaciens).

Data set [4] concerns CD630. As to the kind of experiment: Microdilution assay of inhibitory activity against C. difficile strain 630. To be noted: for activity to CD630 of commercial lipopeptides: commercial (SIGMA) samples, alone or combined.

Converted amounts (≈) assume the structure as drawn. “Also recorded” adds a separate entry of the source. Numbered stars: 1 amine (or outer) side, 2 acyl side, 3 side chain; on linkers, the order of the positions; unused ones are H or OH. Bridge positions count the residues as written; N and C are the ends. Square brackets hold non-standard residues; d marks the D form. Peptide text beside a SMILES is read from it. X1 = CC(C)CCCCCCCCC[C@H](CC(=O)[*:1])O[*:2]; X2 = CCC(C)CCCCCCCCCCC(CC(=O)[*:2])N[*:1]

As for `CC(N)C(=O)NC(C[C@@H]1C=C(Cl)C(=O)CC1)C(=O)O` (some centres unmarked) [Chlorotetaine], the “Bacteriocidal (cessation of cell growth, CD630 cfu/ml)” value in the data set with CD630 [1] is recorded as “bacteriocidal”.

For `NNC(=O)c1ccncc1` [Isoniazid], the minimum inhibitory concentration (MIC) in the data set on M. tuberculosis H37Rv was found to be 0.25 µg/mL (≈ 1.82 µM).

For `CO[C@H]1/C=C/O[C@@]2(C)Oc3c(C)c(O)c4c(O)c(c(/C=N/N5CCN(C)CC5)c(O)c4c3C2=O)NC(=O)/C(C)=C\C=C\[C@H](C)[C@H](O)[C@@H](C)[C@@H](O)[C@@H](C)[C@H](OC(C)=O)[C@@H]1C` [Rifampicin], the minimum inhibitory concentration (MIC) in the data set with M. tuberculosis H37Rv is 0.5 µg/mL (≈ 0.608 µM).

Take `CCC(C)CCCCCCCCCCC1CC(=O)N[C@@H](CC(N)=O)C(=O)N[C@@H](CCC(N)=O)C(=O)N2CCC[C@H]2C(=O)N[C@H](Cc2ccc(O)cc2)C(=O)N[C@H](CC(N)=O)C(=O)N[C@H](CC(N)=O)C(=O)N[C@H](CO)C(=O)N[C@@H](CC(N)=O)C(=O)N1` (some centres unmarked) [mycosubtilin, Mycosubtilin] (cyclo(NQP[dY][dN][dN][dS]N[X2])): the micelle size in data set [2] is listed as 8-18 nm.

As to `CC(C)CCCCCCCCC[C@@H]1CC(=O)N[C@@H](CCC(=O)O)C(=O)N[C@@H](CC(C)C)C(=O)N[C@H](CC(C)C)C(=O)N[C@@H](C(C)C)C(=O)N[C@@H](CC(=O)O)C(=O)N[C@H](CC(C)C)C(=O)N[C@@H](CC(C)C)C(=O)O1` [surfactin, Surfactin] (EL[dL]VD[dL]L; linker N-C via X1), in data set [3], the solubility in water result is reported as “not soluble in water”. Further, in the data set with CD630 [4], the “activity against C. difficile (in words)” value was “no activity” and the “activity to CD630 of commercial lipopeptides” value (“activity to CD630” for short) is “unable to demonstrate any activity; also recorded: none showed activity”. For the same compound, the micelle size in data set [2] is listed as 5-105 nm.

In the case of Iturin A, the “activity to CD630” value in the data set on CD630 [4] is recorded as “unable to demonstrate any activity”; in the data set on CD630 [4] (listed as iturin), “none showed activity”.

With fengycin, in the data set with CD630 [4], the “activity to CD630” value was “none showed activity”.

For orientation: MIC means the lowest concentration found to suppress growth.

The values above are taken from patent US12171734B2, “Pathogenic bacteria” (Sporegen Limited, priority 2018, dated 2024).
